Patent US10435355B2, “Inhibitors of fatty acid amide hydrolase (FAAH) enzyme with improved oral bioavailability and their use as medicaments” (THE REGENTS OF THE UNIVERSITY OF CALIFORNIA, priority 2014, dated 2019)

Assay: Pharmacokinetic experiment (PO and IV) in cannulated rats
Type: in vivo, Sprague-Dawley rats
Details: rat, plasma
Description: Pharmacokinetic Experiment and Analysis
Compounds were administered orally (PO) and intravenously (IV) to cannulated Sprague-Dawley rats at 10 and 3 mg/kg, respectively. Vehicle was: PEG400/Tween 80/Saline solution at 10/10/80 (% in volume), respectively. Three animals per dose were treated. Blood samples at 0, 15, 30, 60, 120, 240, 480 and 1440 min after administration were collected for PO arm. Blood samples at 0, 5, 15, 30, 60, 120 and 240 min after administration were collected for IV arm. Plasma was separated from blood by centrifugation for 15 min at 3500 rpm a 4° C., collected in a Eppendorf tube and frozen (−80° C.). Control animals treated with vehicle only were also included in the experimental protocol.
Preparation of Samples, Standard Curve and QC Samples for UPLC-MS Analysis
Samples were thawed in an ice bath and after a short centrifugation transferred (50 μL) into a 96-deepwell plate and added with 150 μL of acetonitrile spiked with 200 nM Warfarin (the Internal Standard, I.S.). After agitation (3 min) the plate was centrifuged at 3000 g for 10 min at 4° C. […]
Compounds plasma levels were monitored on a Xevo TQ UPLC-MS/MS system (Waters, Milford USA), using the calibration curve and the internal standard (Warfarin). […] Plasma levels data were analyzed using PKSolutions excel application (Summit Research Service, USA) to derive the most important pharmacokinetic parameters. […]

CNC(=O)c1cccc(-c2cccc(OC(=O)NC3CCCCC3)c2)c1
AUC PO (10 mg/kg): 90205 ng·min/mL
